The record followed here is US20110263564A1, “PYRIDINE, BICYCLIC PYRIDINE AND RELATED ANALOGS AS SIRTUIN MODULATORS” (Sirtris Pharmaceuticals, Inc., priority 2008, published 2011).

The structures appear in SMILES notation. Bounds are passed on as bounds.

This test concerns the target T1, SIRT1 (Homo sapiens, UniProt Q96EB6).
T1 sequence (Q96EB6 1-747): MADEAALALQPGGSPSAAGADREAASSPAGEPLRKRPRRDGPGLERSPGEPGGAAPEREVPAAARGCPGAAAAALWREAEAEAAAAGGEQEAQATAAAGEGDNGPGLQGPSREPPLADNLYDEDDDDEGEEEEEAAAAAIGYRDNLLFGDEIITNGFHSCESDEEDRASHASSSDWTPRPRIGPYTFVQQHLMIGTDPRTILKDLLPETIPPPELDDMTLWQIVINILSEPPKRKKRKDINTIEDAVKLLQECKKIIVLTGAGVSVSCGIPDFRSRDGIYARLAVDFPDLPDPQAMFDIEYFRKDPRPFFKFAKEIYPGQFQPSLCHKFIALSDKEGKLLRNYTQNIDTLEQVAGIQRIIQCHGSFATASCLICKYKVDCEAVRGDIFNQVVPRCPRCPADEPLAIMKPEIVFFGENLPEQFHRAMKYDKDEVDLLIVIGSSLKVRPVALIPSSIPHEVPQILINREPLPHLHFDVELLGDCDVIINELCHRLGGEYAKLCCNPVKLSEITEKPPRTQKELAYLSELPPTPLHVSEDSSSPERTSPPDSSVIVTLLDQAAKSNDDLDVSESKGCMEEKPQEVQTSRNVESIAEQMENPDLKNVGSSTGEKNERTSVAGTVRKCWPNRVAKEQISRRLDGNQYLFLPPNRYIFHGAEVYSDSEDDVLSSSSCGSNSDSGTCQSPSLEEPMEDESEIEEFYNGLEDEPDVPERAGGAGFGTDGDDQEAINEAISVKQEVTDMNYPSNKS
The test can be described thus: Mass spectrometry based assay of SIRT1 activity (deacetylation of a p53-based acetylated peptide). It is filed as biochemical. Conditions: 10 nM SIRT1, 0.5 μM peptide substrate, 120 μM βNAD+, 25 minutes at 25° C.; for Emax: read-out: % FOLD ACT. (percent maximum fold activation). The text has this: A mass spectrometry based assay was used to identify modulators of SIRT1 activity. The mass spectrometry based assay utilizes a peptide having 20 amino acid residues as follows: Ac-EE-K(biotin)-GQSTSSHSK(Ac)NleSTEG-K(5TMR)-EE-NH2 (SEQ ID NO: 1) wherein K(Ac) is an acetylated lysine residue and Nle is a norleucine. The peptide is labeled with the fluorophore 5TMR (excitation 540 nm/emission 580 nm) at the C-terminus. The sequence of the peptide substrate is based on p53 with several modifications. In addition, the methionine residue naturally present in the sequence was replaced with the norleucine because the methionine may be susceptible to oxidation during synthesis and purification.
The mass spectrometry assay is conducted as follows: 0.5 μM peptide substrate and 120 μM βNAD^+ is incubated with 10 nM SIRT1 for 25 minutes at 25° C. in a reaction buffer (50 mM Tris-acetate pH 8, 137 mM NaCl, 2.7 mM KCl, 1 mM MgCl2, 5 mM DTT, 0.05% BSA). Test compounds may be added to the reaction as described above. […] After the 25 minute incubation with SIRT1, 10 μL of 10% formic acid is added to stop the reaction. Reactions are sealed and frozen for later mass spec analysis. Determination of the mass of the substrate peptide allows for precise determination of the degree of acetylation (i.e. starting material) as compared to deacetylated peptide (product).
A control for inhibition of sirtuin activity is conducted by adding 1 μL of 500 mM nicotinamide as a negative control at the start of the reaction (e.g., permits determination of maximum sirtuin inhibition). A control for activation of sirtuin activity is conducted using 10 nM of sirtuin protein, with 1 μL of DMSO in place of compound, to determine the amount of deacetylation of the substrate at a given timepoint within the linear range of the assay. This timepoint is the same as that used for test compounds and, within the linear range, the endpoint represents a change in velocity.
For the above assay, SIRT1 protein was expressed and purified as follows. […] The protein was expressed by induction with 1 mM IPTG as an N-terminal His-tag fusion protein at 18° C. overnight and harvested at 30,000×g. Cells were lysed with lysozyme in lysis buffer (50 mM Tris-HCl, 2 mM Tris[2-carboxyethyl]phosphine (TCEP), 10 μM ZnCl2, 200 mM NaCl) and further treated with sonication for 10 min for complete lysis. The protein was purified over a Ni-NTA column (Amersham) and fractions containing pure protein were pooled, concentrated and run over a sizing column (Sephadex S200 26/60 global). The peak containing soluble protein was collected and run on an Ion-exchange column (MonoQ). Gradient elution (200 mM-500 mM NaCl) yielded pure protein. This protein was concentrated and dialyzed against dialysis buffer (20 mM Tris-HCl, 2 mM TCEP) overnight. The protein was aliquoted and frozen at −80° C. until further use.
Sirtuin modulating compounds that activated SIRT1 were identified using the assay described above and are shown below in Table 1 for compounds of Formula (III)). The EC1.5 values represent the concentration of test compounds that result in 150% activation of SIRT1. The EC1.5 values for the activating compounds in Table 1 are represented by A (EC1.5<10.0 μM), B (EC1.5 10-25 μM), C (EC1.5>25 μM). The percent maximum fold activation is represented by A (Fold activation>200%) or B (Fold Activation<200%); “NT” means not tested; “ND” mean not determinable.

For the compound `Cc1cc(NC(=O)C2CCCc3ccc(-c4cccc(C(F)(F)F)c4)nc32)sn1` (stereo not shown) [Compound 282], the “EC1.5 (concentration of test compound that results in 150% activation of SIRT1)” value is recorded as “B (EC1.5 10-25 μM)” and the Emax was < 200%.

With `O=C(NC1CCCc2ccc(-c3cccc(C(F)(F)F)c3)nc21)c1cccc(N2CCOCC2)n1` (stereo not shown) [Compound 236], the “EC1.5 (concentration of test compound that results in 150% activation of SIRT1)” value is listed as “A (EC1.5<10.0 μM)” and the Emax was > 200%.

Consider `O=C(NC1CCOc2ccc(-c3cccc(C(F)(F)F)c3)nc21)c1ccnc(CN2CCOCC2)c1` (stereo not shown) [Compound 223], for which the “EC1.5 (concentration of test compound that results in 150% activation of SIRT1)” value is recorded as “C (EC1.5>25 μM)”.

Regarding `CS(=O)(=O)c1cccc(-c2ccc3c(n2)C(NC(=O)c2cnccn2)CCC3)c1` (stereo not shown) [Compound 250], the “EC1.5 (concentration of test compound that results in 150% activation of SIRT1)” value was “C (EC1.5>25 μM)”.

Consider `O=C(NC1CCCc2ccc(-c3ccc(F)c(C(F)(F)F)c3)nc21)c1cnccn1` (stereo not shown) [Compound 254], for which the “EC1.5 (concentration of test compound that results in 150% activation of SIRT1)” value is “A (EC1.5<10.0 μM)” and the Emax is < 200%.

On to `O=C(NC1CCCc2ccc(-c3cccc(C(F)(F)F)c3)nc21)c1cccc(N2CCCC2)n1` (stereo not shown) [Compound 235], for which the “EC1.5 (concentration of test compound that results in 150% activation of SIRT1)” value is on record as “A (EC1.5<10.0 μM)” and the Emax is < 200%.

For `O=C(NC1CCCc2ccc(-c3cccc(C(F)(F)F)c3)nc21)c1ccccn1` (stereo not shown) [Compound 231], the “EC1.5 (concentration of test compound that results in 150% activation of SIRT1)” value was “A (EC1.5<10.0 μM)” and the Emax was > 200%.

Regarding `O=C(Nc1ccnc(N2CCCC2)c1)C1CCCc2ccc(-c3cccc(N4CCOCC4)c3)nc21` (stereo not shown) [Compound 278], the “EC1.5 (concentration of test compound that results in 150% activation of SIRT1)” value was “A (EC1.5<10.0 μM)” and the Emax was < 200%.

Turning to `CC(C(=O)Nc1cccnc1)c1cccc(-c2cccc(C(F)(F)F)c2)n1` (stereo not shown) [Compound 210], the “EC1.5 (concentration of test compound that results in 150% activation of SIRT1)” value was “C (EC1.5>25 μM)”.

For `Cc1cc(NC(=O)C2CCCc3ccc(-c4cccc(C(F)(F)F)c4)nc32)no1` (stereo not shown) [Compound 288], the “EC1.5 (concentration of test compound that results in 150% activation of SIRT1)” value is “C (EC1.5>25 μM)”.

For `O=C(Nc1cccnc1)C1CCCc2ccc(-c3cccc(C(F)(F)F)c3)nc21` (stereo not shown) [Compound 285], the “EC1.5 (concentration of test compound that results in 150% activation of SIRT1)” value is “C (EC1.5>25 μM)”.

For `O=C(NC1CCCc2ccc(-c3cc(C(F)(F)F)ccc3F)nc21)c1cnccn1` (stereo not shown) [Compound 251], the “EC1.5 (concentration of test compound that results in 150% activation of SIRT1)” value is on record as “A (EC1.5<10.0 μM)” and the Emax is > 200%.

As to `CC(C(=O)Nc1nccs1)c1cccc(-c2cccc(C(F)(F)F)c2)n1` (stereo not shown) [Compound 221], the “EC1.5 (concentration of test compound that results in 150% activation of SIRT1)” value was “C (EC1.5>25 μM)”.

Take `Cc1cnc(C(=O)NC2CCCc3ccc(-c4cccc(C(F)(F)F)c4)nc32)cn1` (stereo not shown) [Compound 234]: the “EC1.5 (concentration of test compound that results in 150% activation of SIRT1)” value is listed as “A (EC1.5<10.0 μM)” and the Emax was > 200%.

Consider `O=C(NC1CCCc2ccc(-c3cccc(C(F)(F)F)c3)nc21)c1ccc(F)c(Cl)c1` (stereo not shown) [Compound 225], for which the “EC1.5 (concentration of test compound that results in 150% activation of SIRT1)” value is on record as “C (EC1.5>25 μM)”.

For the compound `O=C(Nc1ncc(CN2CCCC2)s1)C1CCCc2ccc(-c3cccc(C(F)(F)F)c3)nc21` (stereo not shown) [Compound 296], the “EC1.5 (concentration of test compound that results in 150% activation of SIRT1)” value is on record as “C (EC1.5>25 μM)”.

As to `O=C(NC1CCCc2ccc(-c3cccc(C(F)(F)F)c3F)nc21)c1cnccn1` (stereo not shown) [Compound 256], the “EC1.5 (concentration of test compound that results in 150% activation of SIRT1)” value is “C (EC1.5>25 μM)”.

Turning to `O=C(NC1CCCc2ccc(-c3cccc(C(F)(F)F)c3)nc21)c1ccnc(CN2CCCC2)c1` (stereo not shown) [Compound 239], the “EC1.5 (concentration of test compound that results in 150% activation of SIRT1)” value was “C (EC1.5>25 μM)”.

As to `CC(NC(=O)c1cnccn1)c1cccc(-c2cccc(OC(F)(F)F)c2)n1` (stereo not shown) [Compound 207], the “EC1.5 (concentration of test compound that results in 150% activation of SIRT1)” value is “B (EC1.5 10-25 μM)” and the Emax is > 200%.

With `CC(C)c1cccc(-c2cccc(C(C)NC(=O)c3cscn3)n2)c1` (stereo not shown) [Compound 201], the “EC1.5 (concentration of test compound that results in 150% activation of SIRT1)” value is given as “C (EC1.5>25 μM)” and the Emax is < 200%.

Regarding `CC(NC(=O)c1ccccc1)c1cccc(-c2ccccc2)n1` (stereo not shown) [Compound 217], the “EC1.5 (concentration of test compound that results in 150% activation of SIRT1)” value is listed as “C (EC1.5>25 μM)”.

Consider `O=C(NC1CCOCC1)C1CCCc2ccc(-c3cccc(C(F)(F)F)c3)nc21` (stereo not shown) [Compound 287], for which the “EC1.5 (concentration of test compound that results in 150% activation of SIRT1)” value is listed as “C (EC1.5>25 μM)”.

With `O=C(NC1CCCc2ccc(-c3cccc(C(F)(F)F)c3)nc21)c1cccc(CN2CCCC2)c1` (stereo not shown) [Compound 237], the “EC1.5 (concentration of test compound that results in 150% activation of SIRT1)” value is on record as “B (EC1.5 10-25 μM)” and the Emax was < 200%.

Take `O=C(NC1CCCc2ccc(-c3cccc(N4CCOCC4)c3)nc21)c1cnccn1` (stereo not shown) [Compound 261]: the “EC1.5 (concentration of test compound that results in 150% activation of SIRT1)” value is reported as “C (EC1.5>25 μM)”.

Take `O=C(NC1CCOc2ccc(-c3cccc(C(F)(F)F)c3)nc21)c1cnccn1` (stereo not shown) [Compound 224]: the “EC1.5 (concentration of test compound that results in 150% activation of SIRT1)” value is “C (EC1.5>25 μM)”.

Regarding `O=C(Nc1nc(CN2CCOCC2)cs1)C1CCCc2ccc(-c3cccc(C(F)(F)F)c3)nc21` (stereo not shown) [Compound 294], the “EC1.5 (concentration of test compound that results in 150% activation of SIRT1)” value is “A (EC1.5<10.0 μM)” and the Emax was > 200%.

On to `O=C(Nc1ccncc1)C1CCCc2ccc(-c3cccc(C(F)(F)F)c3)nc21` (stereo not shown) [Compound 286], for which the “EC1.5 (concentration of test compound that results in 150% activation of SIRT1)” value is reported as “C (EC1.5>25 μM)”.

Take `CC(NC(=O)c1cnccn1)c1cccc(-c2cccnc2)n1` (stereo not shown) [Compound 213]: the “EC1.5 (concentration of test compound that results in 150% activation of SIRT1)” value is on record as “C (EC1.5>25 μM)”.

For the compound `O=C(NC1CCCc2ccc(-c3cccc(C(F)(F)F)c3)nc21)c1ccc(CN2CCOCC2)nc1` (stereo not shown) [Compound 241], the “EC1.5 (concentration of test compound that results in 150% activation of SIRT1)” value was “C (EC1.5>25 μM)”.

On to `O=C(NC1CCCc2ccc(-c3ccccc3C(F)(F)F)nc21)c1cnccn1` (stereo not shown) [Compound 253], for which the “EC1.5 (concentration of test compound that results in 150% activation of SIRT1)” value is given as “C (EC1.5>25 μM)”.

With `Cc1nc(NC(=O)C2CCCc3ccc(-c4cccc(C(F)(F)F)c4)nc32)sc1C` (stereo not shown) [Compound 281], the “EC1.5 (concentration of test compound that results in 150% activation of SIRT1)” value is on record as “C (EC1.5>25 μM)”.

As for `CC(NC(=O)c1cccc(CN2CCCC2)n1)c1cccc(-c2cccc(C(F)(F)F)c2)n1` (stereo not shown) [Compound 219], the “EC1.5 (concentration of test compound that results in 150% activation of SIRT1)” value is reported as “C (EC1.5>25 μM)”.

With `CC(NC(=O)c1cscn1)c1cccc(-c2cccc(C(F)(F)F)c2)n1` (stereo not shown) [Compound 203], the “EC1.5 (concentration of test compound that results in 150% activation of SIRT1)” value is recorded as “B (EC1.5 10-25 μM)” and the Emax is < 200%.
